{
  "source": "paper PMC7997574",
  "about": "“Lead Optimization of Benzoxazolone Carboxamides as Orally Bioavailable and CNS Penetrant Acid Ceramidase Inhibitors” (Journal of Medicinal Chemistry, 2020)",
  "key": {"[1]": {"experiment": "Maximum tolerated dose (MTD) study in C57BL/6 mice", "format": "in vivo, mouse", "details": "i.p. dose escalation 20, 40, 80, 120 mg kg^–1 over 4 days", "description": "An MTD study was conducted on male C57BL/6 mice (15–19 g, 5 weeks old, SLAC Laboratory Animal Co. Ltd.). Animals were injected via intraperitoneal (i.p.) injection with single administration at 20 mg kg^–1 (N = 18, vehicle: 100% saline at 0.6 mg mL^–1) and multiple administrations for a duration of 4 days at 20 (N = 18, day 1), 40 (N = 18, day 2), 80 (N = 18, day 3), and 120 mg kg^–1 (N = 18, day 4). Clinical observations/samples of plasma, CSF, and brain were collected at 0.25, 0.5, 1, 4, 8, and 24 h. All procedures were performed in accordance with the Ethical Guidelines on the Protection of Animals Used for Scientific Purposes at the DMPK Group at Shanghai ChemPartner Co., Ltd."}, "GluSph (d18:1)": {"system": "GluSph (d18:1)", "experiment": "Brain GluSph levels in 4L;C* mice (neuropathic Gaucher's disease model)", "format": "in vivo, mouse", "description": "4L;C* mice (C57BL/6 J/129SvEV) were randomly assigned to three treatment groups (N = 4–8 with mixed males and females) and dosed once a day i.p. with 90 or 30 mg kg^–1 of 22m or vehicle. Treatment started at 5 days of age for a duration of 14 days. The application volume was set to 10 μL per gram of body weight, and dosage was adjusted accordingly. Animals of all groups were sacrificed 1 h after the last dose, and the brain tissues and plasma were collected. The left brain containing cortex, cerebella, thalamus, and brainstem was analyzed for SphL levels by MS. Data were analyzed using the Student t test. The right brain containing cortex, cerebella, thalamus, and brainstem and plasma were analyzed for drug levels of 22m. All mice were housed under pathogen-free conditions in the animal facility, and animal experiment was performed according to the IACUC approved protocol (2018-0056) at Cincinnati Children’s Hospital Research Foundation. Wild Type (WT) (GALC+/+) and Twitcher (Twi) (GALC–/−) mice were genotyped by PCR as previously described.[58] […] The left brain containing cortex, cerebella, thalamus, and brainstem was analyzed for SphL levels by MS. Data were analyzed using the Student t test. The right brain containing cortex, cerebella, thalamus, and brainstem and plasma were analyzed for drug levels of 22m. […]"}, "[2]": {"experiment": "In vitro mouse brain tissue protein binding (equilibrium dialysis)", "format": "in vitro ADME", "description": "Studies were performed by the DMPK Group at Shanghai ChemPartner Co., Ltd., using the equilibrium dialysis method. Values are the mean of two technical replicates."}, "AC": {"target": "T1, AC (Homo sapiens, UniProt Q13510)", "T1 sequence (Q13510 22-395)": "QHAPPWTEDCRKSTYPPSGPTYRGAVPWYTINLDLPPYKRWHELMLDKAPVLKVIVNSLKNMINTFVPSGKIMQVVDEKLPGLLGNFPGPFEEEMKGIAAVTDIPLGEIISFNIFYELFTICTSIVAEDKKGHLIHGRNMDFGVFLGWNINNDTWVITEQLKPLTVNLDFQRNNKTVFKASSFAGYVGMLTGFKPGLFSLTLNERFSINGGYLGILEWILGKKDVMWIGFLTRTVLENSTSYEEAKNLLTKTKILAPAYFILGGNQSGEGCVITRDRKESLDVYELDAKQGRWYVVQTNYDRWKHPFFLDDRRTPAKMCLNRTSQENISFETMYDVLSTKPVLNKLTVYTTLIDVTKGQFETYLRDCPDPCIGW", "experiment": "Kinetic studies on hAC-enriched lysates (Michaelis–Menten analysis, ki/KI)", "format": "biochemical", "design": "expressed in transfected cells", "details": "time-dependent inhibition of hAC", "description": "Assay conditions for the kinetic studies were the same as those described for the fluorogenic hAC assay. Enzyme-enriched lysate (2 μg) was incubated with the following concentrations of substrate Rbm14–12: 0.25, 0.5, 1, 2.5, 5, 10, 12.5, and 15 μM. Compound 22m was used at final concentrations of 100 and 400 nM. Initial velocities (V0) were determined and automatically fitted to the Michaelis–Menten equation to obtain the kinetic parameters (KM and Vmax). The graph is representative of two independent experiments, each performed in three technical replicates. Graphs and data analysis were performed using GraphPad Prism 5 software (GraphPad Software Inc., CA, USA).\nhAC activity was measured as a function of reaction time in the presence of different concentrations of 22m. The apparent inactivation rate constant of hAC (kobs) was analyzed by nonlinear square fitting each data set to the pseudo-first-order rate equation Y = vi(1 – exp(−kobst))/kobs. Replotting of calculated kobs vs [22m] was made, and the kinetic parameter ki/KI was calculated by nonlinear square fitting data to the equation Y = kiI/(KI + I). The graphs are representative of two independent experiments, each performed in two technical replicates."}},
  "note": "“And” between values parts separate entries of the source, which are not always exact repeats. Equal entries are not always repeated.",
  "data": [
    {"smiles": "CC(C)CNC(=O)n1c(=O)oc2cc(C3CCN(C)CC3)ccc21", "note": "[22m, N-Isobutyl-6-(1-methyl-4-piperidyl)-2-oxo-1,3-benzoxazole-3-carboxamide]", "values": [
      {"measurement": "clinical observations in MTD study", "setting": "[1]", "result": "no clinical abnormalities were observed"},
      {"measurement": "effect on brain GluSph (d18:1)", "setting": "GluSph (d18:1); 30 and 90 mg kg^–1 i.p. once a day for 14 days", "result": "significantly reduces GluSph (d18:1) in the brain of 4L;C* mice in a dose-dependent manner"},
      {"measurement": "reduction of the GluSph levels relative to control", "setting": "GluSph (d18:1); brain, 90 mg kg^–1 i.p. once a day for 14 days", "result": 54, "unit": "%"},
      {"measurement": "Fb, u (%) brain fraction unbounded", "setting": "[2]", "result": 0.70, "unit": "%"},
      {"measurement": "ki", "setting": "AC", "result": 0.15, "unit": "min^–1"},
      {"measurement": "ki/KI", "setting": "AC", "result": "0.02 μM^–1 min^–1 and 0.02±0.001 μM^–1 min^–1"}
    ]}
  ]
}
